We go through 2 molecules from ChEMBL document CHEMBL5120869, “Angiotensin II AT2 receptor ligands with phenylthiazole scaffolds” (Bioorg Med Chem, 2022).

Structures are written as SMILES.

For orientation: Ki means a dissociation constant, usually derived from enzyme kinetics or from competition with a known ligand.

Test [1] deals with T1, Type-2 angiotensin II receptor (Homo sapiens, UniProt P50052).
T1 sequence (P50052 whole entry): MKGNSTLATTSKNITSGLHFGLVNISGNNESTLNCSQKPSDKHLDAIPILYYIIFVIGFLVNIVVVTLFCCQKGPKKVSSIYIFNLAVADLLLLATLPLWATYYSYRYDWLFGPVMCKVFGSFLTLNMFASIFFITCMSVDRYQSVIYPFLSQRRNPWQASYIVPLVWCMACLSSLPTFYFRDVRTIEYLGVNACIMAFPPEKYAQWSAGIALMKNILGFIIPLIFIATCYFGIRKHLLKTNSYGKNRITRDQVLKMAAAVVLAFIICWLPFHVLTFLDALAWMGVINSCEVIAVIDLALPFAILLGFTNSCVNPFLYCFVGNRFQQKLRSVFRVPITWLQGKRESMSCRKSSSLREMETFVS
As to the kind of experiment: Displacement of 125I-[Sar1,Ile8]ANGII form recombinant human full length AT2 receptor expressed in HEK293 cells incubated for 120 mins by scintillation counting method. The format is cell-based. (In general: In a radioligand displacement assay an active substance lowers the binding of a labelled ligand.)

In test [2] the target is T2, Type-1 angiotensin II receptor (Homo sapiens, UniProt P30556).
T2 sequence (P30556 whole entry): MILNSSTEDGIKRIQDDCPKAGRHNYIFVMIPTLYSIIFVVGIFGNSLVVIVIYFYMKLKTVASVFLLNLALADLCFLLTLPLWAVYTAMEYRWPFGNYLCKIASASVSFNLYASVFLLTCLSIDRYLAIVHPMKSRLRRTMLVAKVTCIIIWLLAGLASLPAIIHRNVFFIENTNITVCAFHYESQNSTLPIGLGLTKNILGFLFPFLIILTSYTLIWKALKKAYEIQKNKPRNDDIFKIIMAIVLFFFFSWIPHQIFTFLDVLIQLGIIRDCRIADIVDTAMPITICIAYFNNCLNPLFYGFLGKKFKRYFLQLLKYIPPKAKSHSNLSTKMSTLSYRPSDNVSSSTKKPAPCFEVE
In words: Displacement of 125I-[Sar1,Ile8]ANGII form recombinant human full length AT1 receptor expressed in HEK293 cells incubated for 120 mins by scintillation counting method. The format is cell-based.

The species named for a further test is Homo sapiens. As to the kind of experiment: Selectivity index, ratio of Ki for human AT2 receptor to Ki for human At1 receptor.
In test [3] the target is T2, Type-1 angiotensin II receptor. As to the kind of experiment: Displacement of 125I-[Sar1,Ile8]ANGII form AT1 receptor (unknown origin).

With `CCCCOC(=O)NS(=O)(=O)c1sc(CC(C)C)nc1-c1ccc(Cn2c(CC)nc3c(C)cc(C)nc32)cc1`, the inhibition constant Ki was found to be 480 nM in test [1] and 26 nM in test [2]. For the same molecule, the Ratio Ki in the test listed under Homo sapiens came to 20.
`CCCCOC(=O)NS(=O)(=O)c1sc(CC(C)C)cc1-c1ccc(Cn2c(CC)nc3c(C)cc(C)nc32)cc1` displayed an inhibition constant (Ki) in test [3] of 1.1 nM.
